# Entries after “also recorded” stand apart in the source; their conditions may differ.
# How the values were obtained:
# [1] = Stability test by biotin ELISA of peptides immobilized on titanium, in SaOS-2 cell supernatant; assay type: in vitro ADME; conditions: titanium coated at 1 μM, 37° C.
# Experimental: (§1) For that, titanium slices were etched in order to obtain a freshly oxidized surface. Subsequently, the titanium slices were incubated with various peptide concentrations. Following intensive washing steps titanium-bound peptide was identified with the well-described biotin-streptavidin interaction. […] Moreover, stability of the DOPA peptides was tested in cell supernatant to imitate in vitro conditions. For that, titanium slices were coated with the corresponding biotinylated peptides (concentration=1 μM). Following incubation in SaOS-2 cell supernatant at 37° C. remaining peptide was identified by means of the biotin ELISA. Within a period of 7 days constantly more than 50% of immobilized and biotinylated peptide were detected (FIG. 2C).
# Titanium slices were etched as described and incubated overnight with 1 μM of peptide solutions in TBS buffer at RT. Subsequently, the coated slices were washed 5 times with TBS-T buffer and transferred to new reaction vessels. Thereafter, the titanium slices were incubated with cell supernatant (of SaOS-2 cells after 2 days of cell cultivation) at 37° C. for certain times. To detect […], biotinylated peptide on the surface the titanium slices were washed 4 times with TBS-T and once with TBS and the biotin ELISA was performed as described. Zero reading values were obtained by uncoated titanium slices and subtracted from the generated data. The obtained measuring values were normalized to the value measured at 0 min. Error bars are represented as standard error of the mean (SEM) from at least 2 independent experiments (double determination).
# [2] = test system: SaOS-2 cells; assay: Immunolabelling of focal contacts (vinculin) on peptide coatings; assay type: cell-based; conditions: 24 hrs adhesion, anti-vinculin antibody
# Experimental: (§2) To determine the bioactivity of the ligated peptides and their controls cell adhesion studies have been performed. Osteoblast-like cells (SaOS-2) have been sown on etched peptide-coated titanium. All cellular experiments were performed in serum-free medium to prevent false results by adsorption of serum proteins. To study initial cell adhesion the cells were fixed and dyed after 6 h of cultivation to observe morphology and average cell plane and number by means of fluorescence microscopy. […] Indeed, an increase in cell size was observed, slightly higher than on uncoated titanium slices. […] Cells having a fibroblast-like morphology and distinct bundles of fibrils have been found on all RGD-containing peptide coatings. […] In addition to the average cell plane the cell number was determined by counting cells that adhered after 6 h. […] Moreover, a similar tendency as already in the cell plane experiment could be observed. […] It is known that RGD peptides mediate the formation of focal contacts that are decisive for the outer-inner communication between cell and ECM.^6 By immuno-labeling with an anti-vinculin antibody it is possible to visualize vinculin, a protein involved in building up focal adhesion.
# Cells (40,000 per well) were sown onto coated and washed titanium slices as already described. After 1 d of cell adhesion the slices were washed twice with PBS. All of the following washing steps were performed with 0.05% (v/v) Tween-20 in PBS. Thereafter, the cells were fixed and permeabilized as already described. To block unspecific interactions the slices were incubated with 1% bovine serum albumin (BSA) in PBS for 40 min. Subsequently, the cells were incubated with a murine monoclonal antibody against vinculin (Millipore, staining kit, 1:200) for 1 hr. at RT. Thereafter, the cells were washed and labeled with phalloidin-TRITC and a fluoresceinisothiocyanate (FITC) conjugated goat anti-mouse antibody (Millipore, 1:100) in 1% (v/v) BSA in PBS for 2 hr. Following a further washing step the nucleus was dyed with 4′,6-diamidino-2-phenylindol (DAPI, Millipore) in PBS for 15 min. Before the slices were attached to slides they were washed three times for 10 min. each. Fluorescence microscopy was performed on an Axio Observer microscope and an ApoTome Imaging System (Zeiss).
# [3] = test system: SaOS-2 cells; assay: Viability assay (resazurin) on coated titanium; assay type: cell-based; conditions: after 3 days of adhesion
# Experimental: (§3) In addition to initial cell adhesion after 6 h cell viability and proliferation after 3 d was studied. Incorporation of the bromine-labeled thymidine analogue bromodeoxyuridine (BrdU) within 24 h, after 2 d of cell adhesion, was used to determine proliferation of cells on coated titanium. No significant changes could be found between the immobilized peptides and controls (FIG. 5C). However, a peptide coating is advantageous compared to untreated titanium. […] Cell viability was studied after 3 days of adhesion by reacting resazurin to resorufin by living cells. […] This fact emphasizes the cell repellent, but at the same time not toxic properties of the PEG. […] Thus, the advantageous approach to present both cell binding peptides in one molecule is confirmed.
# Cells were sown onto coated and washed titanium slices in FCS-free medium in a 96-well plate. After one day the medium was replaced by FCS-containing medium. On day 3 20 μL of CellTiderBlue® (Promega) were added to each well. After 2 hrs. of incubation the reaction of resazurin to resorufin was determined by means of fluorescence intensity measurement at 560Ex/590Em nm. The measured values (mean±SEM) were evaluated from 4 independent experiments performed in triplicate.
# [4] = test system: SaOS-2 cells; assay: Cell adhesion assay on peptide-coated titanium (fluorescence microscopy); assay type: cell-based; conditions: 6 h adhesion, serum-free medium; for average cell plane (cell propagation, cell size) / cell morphology / actin cytoskeleton: 1 μM peptide coating; for cell number of adhered cells: normalized to uncoated Ti
# Experimental: as §2
# Titanium foil was stamped and etched as already described. Following washing steps with water and PBS buffer (Dulbeccos phosphate) the titanium slices were sterilized with 70% ethanol/water (v/v) in an ultrasonic bath for 15 min. After having washed twice with PBS buffer the titanium slices were incubated overnight in a 48-well plate at RT with 300 μL of 1 μM of a peptide solution in PBS, PBS (negative control), and fibronectin in PBS (25 μg/mL, positive control).
# Coated titanium slices (48-well plate) were washed twice with PBS. SaOS-2 cells were re-suspended in medium without FCS. Thereafter, the cells were sown on the coated titanium slices (50,000-90,000 cells per well, in this range we didn't find any influence on the cell plane for respective coating). Following adhesion for 6 hrs. the slices were washed with PBS and the cells were fixed with 4% paraformaldehyde in PBS for 30 min. Subsequently, the adhered cells were washed and permeabilized with 1% Triton X-100 in PBS for 1 min. Thereafter, the cells were dyed with phalloidin-tetramethylrhodamine isothiocyanate (phalloidin-TRITC) and HOECHST 33342 (both Sigma Aldrich). For fluorescence microscopy (Axio Observer microscope, Zeiss) the slices were attached to slides. For each slice (triplicate) 3 representative images at 20 fold and 10 fold magnification were made. Then, the average cell plane was determined by edging (Software Axio Vision 4.8, Zeiss) each single cell on one representative image (20 fold) each of each triplicate. The determined values were summarized from 3 independent experiments and represented as mean±SEM. To determine the cell number, three 10 fold magnified images were evaluated by means of ImageJ software and normalized to titanium=1, n≥3.
# [5] = test system: SaOS-2 cells; assay: Proliferation assay (BrdU) on coated titanium; assay type: cell-based; conditions: 24 h incorporation after 2 d of cell adhesion, normalized to uncoated titanium
# Experimental: as §3
# Cells were sown onto coated and washed titanium slices in FCS-free medium in a 96-well plate. After one day the medium was replaced by FCS-containing medium. On day 2 bromodeoxyuridine (BrdU) was added to each well for labelling (colorimetric Cell Proliferation kit, Roche). After 24 hrs. of incorporation of the label the cells were washed and fixed. […] Binding of the antibody was detected with the addition of a 3,3′,5,5′-tetramethylbenzidine (TMB) solution and H2O2(Calbiochem). […] The measured values (mean±SEM) were evaluated from 4 independent experiments performed in triplicates and normalized to uncoated titanium.
# [6] = Biotin ELISA, binding of biotinylated peptides to etched titanium slices; conditions: for pEC50 binding affinity to titanium / EC50: biotinylated peptides, etched titanium slices, 2 hrs at RT in TBS; for EC50: read-out: EC50 binding affinity to titanium; for beginning of saturation phase of binding to titanium: concentration effect curve of the biotin ELISA
# Experimental: Following synthesis of the mussel peptide by solid phase peptide synthesis (Fmoc/tBu strategy) the binding affinity to titanium was studied.
# as §1
# Titanium foil (Sigma Aldrich, thickness: 0.127 mm) was cut to round pieces (area=0.43 cm^2) and etched in H2SO4 (30%)/H2O2 (1:1 v/v) for 7 min. Following washing steps with water and TBS buffer (50 mM tris(hydroxymethyl)-aminomethane (Tris), 150 mM NaCl, pH 7.6) the titanium slices were incubated with various concentrations of biotinylated peptides in TBS buffer dissolved for 2 hrs. at RT. Subsequently, the coated slices were washed 5 times with TBS-T buffer (50 mM Tris, 150 mM NaCl, 0.1% Tween 20, pH 7.6) and transferred to new reaction vessels. The following biotin ELISA was performed in accordance with Hassert et al.^3 Zero reading values were obtained with uncoated titanium slices and subtracted from the generated values (absorption per cm^2). The obtained data points were non-linearly fitted with GraphPad Prism 5 software (GraphPadInc.). Error bars are represented as standard error of the mean (SEM) from at least 2 independent experiments.
Substance,"stability on titanium, comparison of peptides [1]",pEC50 binding affinity to titanium [6],EC50 [6],formation of focal adhesion contacts (vinculin) [2],"average cell plane (cell propagation, cell size) [4]",cell morphology / actin cytoskeleton [4],also measured
C-Peg-Y*-K(c[RGDfK])-Y*-Peg-G*(K(N3)-FHRRIKA-NH2)-βA-NH2 [MP-RGD-HBP],–,–,–,line-like adhesion contacts (green) were formed; also recorded: slight increase in focal complexes,highest average cell plane,"distinctive, parallel actin filaments have formed",cell viability (resazurin to resorufin) [3]: best result among all synthesized peptides; cell proliferation (BrdU incorporation) [5]: slightly increased cell proliferation
C-Peg-Y*-K-Y*-Peg-G*(K(N3)-FHRRIKA-NH2)-βA-NH2 [MP-HBP],–,–,–,a few or no focal adhesion contacts,increase of cell propagation compared with MP and uncoated titanium,only formed a few actin filaments and adhered in irregular cell shapes,–
c[RGDfK(dienophile)],–,–,–,–,–,–,cell number of adhered cells [4]: increased to a greater extent than on HBP
C-Peg-Y*-K(c[RGDfK])-Y*-Peg-G*-βA-NH2 [MP-RGD],–,–,–,line-like adhesion contacts (green) were formed,average cell size comparable to the naturally occurring ECM protein fibronectin,–,–

# Continued, in another order:
"stability on titanium, comparison of peptides [1]",pEC50 binding affinity to titanium [6],EC50 [6],Substance,formation of focal adhesion contacts (vinculin) [2],"average cell plane (cell propagation, cell size) [4]",cell morphology / actin cytoskeleton [4],also measured
no significant differences,–,–,Bio-X-X-C-Peg-Y*-K-Y*-Peg-G*-βA-NH2 [bio-MP],–,–,–,–
–,4.6±0.1,> 10000 nM,P*-T-Y-K-NH2 [bio-(−) mefp-1],–,–,–,–
tendency to a higher stability,7.6±0.1,23.6 nM,C-Peg-Y*-K-Y*-Peg-G*-βA-NH2 [MP],a few or no focal adhesion contacts,smallest cell propagation,rather round shape with slightly formed cytoskeleton,beginning of saturation phase of binding to titanium [6]: sub-μM range; cell viability (resazurin to resorufin) [3]: more living cells could be analyzed on this coating than on titanium; cell number of adhered cells [4]: smallest cell number
no significant differences,8.2±0.1,6.4 nM,Bio-X-X-A-K-P*-S-Y*-P*-P*-T-Y*-K-NH2 [mefp-1],–,–,–,beginning of saturation phase of binding to titanium [6]: sub-μM range
